What was measured:
C1F chicken cells = assay: Alternative sugars as carbon source for C1F suspension cultures; assay type: cell-based; details: for viable cell density at peak: 3 g/L sugar from day 0, batch, day 3, 1.25% FBS
Description: We evaluated the impact of alternative sugars (mannose, fructose and galactose) on the growth and metabolism of an in-house C1F chicken cells grown in suspension cultures containing 1.25% FBS. Specific net growth rate (uN) and Specific glucose consumption rate (qGluc) or specific lactate production rate (qLac) were calculated according to equation 1 or 2 as disclosed in Example 12.
Suspension cultures as described herein were cultivated using 3 g/L of the respective sugars were added from day 0 and cultured in a batch mode up to day 3. On day 3 after sampling, an additional 3 g/L of each sugar was added to the respective flasks. By day 3, at the peak cell density, flasks that used glucose as carbon source had the highest viable cell density (˜2.805×10^6 cells/mL), followed by flasks with mannose (˜2.40×10^6 cells/mL), then fructose (1.935×10^6 cells/mL) and lastly galactose (0.915×10^6 cells/mL).
Since we observed that the C1F cells could utilize fructose as a carbon source, we evaluated the effect of different starting concentration of fructose. In one experiment, 6 g/L of fructose was added to one set of duplicate flasks from day 0, and 3 g/L of fructose added each to another set of duplicate flasks from day 0. In the flasks starting with 3 g/L of fructose, an additional 3 g/L of fructose was added on day 1 of one of the duplicates and day 2 of the other duplicate.
We next evaluated the effect of combining glucose, mannose and fructose on growth and lactate production. Using a design-of-experiment (DOE) approach, 17 batch shake flask runs were carried out evaluating varying combinations of concentrations of glucose, mannose and fructose as energy sources for suspension chicken C1F cells. The experimental design used included 3 factors (glucose, mannose and fructose) and 4 levels (0, 0.5, 1.5 and 3.0 g/L). By day 3, cells with the base carbon sources 3.0 glucose/0.5 fructose/0.5 mannose had the highest viable cell density (VCD) of 3.8×10^6 cell/mL, followed by 3.0 glucose/0.0 fructose/3.0 mannose and 3.0 glucose/3.0 fructose/3.0 mannose. […]

C1F cells [1] = assay: Sodium oxamate treatment of C1F suspension culture (lactate, glucose, growth); assay type: cell-based, chicken; details: 10, 15, 20 and 30 mM, 3-day batch cell culture
C1F cells [2] = assay: as above; assay type: cell-based, chicken
Description: […] cells were cultivated in suspension culture supplemented with 1.25% bovine serum. Different concentrations of sodium oxamate were tested: 1, 3, 5, 10, 30, 60, 100, and 200 mM, and production of lactate, glucose consumption, cell growth rates and cell density were measured. The specific rates were calculated using daily viable cell concentration and metabolite concentrations for the duration of the cell culture. Specific net growth rates (UN) were calculated as a change in VCD over a time interval t1 to t2 using equation (1): Specific glucose consumption rate (qGluc) or specific lactate production rate (qLac) were determined using equation (2), where P is glucose or lactate concentration: Viable cell density (VCD) and viability were determined by the trypan blue exclusion method using the Vi-cellTM (Beckman Coulter) from 1 mL daily samples taken from shake flask cell culture. Gas and pH values including metabolite (glucose, lactate glutamine, glutamate, ammonium) concentrations were measured using the Bioprofile Flex analyzer (Nova Biomedical). Osmolality was measured using the OsmoPro Multi-Sample Micro-Osmometer (Advanced Instruments) which employs the freezing point technology. To further examine if the effects of oxamate remained similar in cell culture with metabolic by-products already present, we passaged cells treated with 30 mM oxamate using a 1:3 (v/v) split with fresh media (1⁄3 of the volume of spent media and 2⁄3 of fresh media). Having been used in culture for several days, carried over media invariably contains residual amounts (carryover) of metabolites resultant from cell consumption.

SMILES | viable cell density at peak (C1F chicken cells) | lactate accumulation, higher by day 3 (C1F chicken cells; 6 g/L from day 0 vs 3 g/L from day 0 plus 3 g/L later) | decrease in lactate production (C1F cells [1]) | reduction in lactate production (C1F cells [2]; 10 mM, day 2, C1F-SCM batch shake flasks, vs control, p<0.05) | cell viability and osmolality of the media (C1F cells [2]; 30 mM) | specific glucose consumption (qGluc) (C1F cells [2]; 30 mM) | increase in maximum viable cell density (C1F cells [2]; 30 mM vs control) | ammonium accumulation (C1F cells [2]; 30 mM, between days 3 and 5, relative to non-treated control) | reduction in cumulative lactate production (C1F cells [2]; 30 mM, by day 5, vs control group) | peak viable cell density (C1F cells [2]; 30 mM, day 5, passaged 1:3 with spent media carryover) | lactate production (C1F cells [2]; 30, 60, 100 and 200 mM, 3-day batch culture) | lactate production vs control (C1F cells [2]; other concentrations tested (1, 3, 5 mM), day 2, C1F-SCM batch)
O=C(CO)[C@@H](O)[C@H](O)[C@H](O)CO [fructose] | 1.935×10^6 cells/mL | 36% | – | – | – | – | – | – | – | – | – | –
O=C[C@H](O)[C@@H](O)[C@@H](O)[C@H](O)CO [galactose] | 0.915×10^6 cells/mL | – | – | – | – | – | – | – | – | – | – | –
NC(=O)C(=O)[O-].[Na+] [oxamate, sodium oxamate] | – | – | about 52% | 28% | not compromised | decreased | ~44% | spiked out | ~23% | 2.79×10^6 cells/mL | concentration-dependent decrease | appreciable decrease in lactate production

From patent publication US20220079194A1, “EXTRUDATE FOOD COMPOSITIONS COMPRISING CULTIVATED ANIMAL CELLS AND METHODS OF PRODUCTION THEREOF” (GOOD Meat, Inc., priority 2020, published 2022)
